{"source": "patent US20230413814A1", "about": "“A METHOD FOR REMOVING A BIOFILM” (TECHNOLOGICAL UNIVERSITY DUBLIN, priority 2020, published 2023)", "key": {"[1]": {"system": "Enterococcus faecalis ATCC 7080", "experiment": "Biofilm formation in 96 well plate, crystal violet assay", "format": "cell-based", "settings": "for reduction of biofilm formation versus control: 24 hours, 37° C., FIG. 1 B", "description": "(§1) FIG. 1: The effect of varying concentrations of DHA on the ability of Klebsiella pneumoniae NCIMB 418 (A) and Enterococcus faecalis ATCC 7080 (B) to form a biofilm in vitro. (10^6 CFU/well was incubated with various concentrations of DHA in a 96 well plate for 24 hours statically at 37° C. Biofilm formation was assessed using the crystal violet assay. Data represents the mean±SD for six independent experiments, carried out in triplicate. One-way ANOVA was performed for statistical analysis. *****P<0.001 compared to both the control (no DHA) and vehicle control (1% DMSO).\n(§2) The effect of varying concentrations of DHA on the ability of Klebsiella pneumoniae NCIMB 418 and Enterococcus faecalis ATCC 7080 to form a biofilm in vitro was investigated. 10^6 CFU/well was incubated with various concentrations of DHA in a 96 well plate for 24 hours statically at 37° C. Biofilm formation was assessed using the crystal violet assay. Data represents the mean±SD for six independent experiments, carried out in triplicate. The assay involved seeding cells at 10^6 CFU/ml in media with DHA. Cells were then left for 24 hrs to form biofilms before washing and staining with Crystal Violet. Crystal violet adhered to cells stuck to the sides of the tube/well. The samples were washed again to remove any unbound dye before dissolving the stain in acetic acid and the reading was measured in a spectrophotometer. The colour intensity relates to the level of biofilm present. The more colour the more bacteria in the biofilm (Merrit, J. H, et al., (2005) “Growing and Analysing Static Biofilms”, Current Protocols in Microbiology, Chapter 1(July), p. Unit 1B.1.)."}, "[2]": {"system": "Klebsiella pneumoniae NCIMB 418", "experiment": "Biofilm formation in 96 well plate, crystal violet assay", "format": "cell-based", "settings": "for reduction of biofilm formation versus control: 24 hours, 37° C., FIG. 1 A", "description": "as §1, §2"}, "[3]": {"system": "human gingival fibroblasts (HGFs)", "design": "dose or concentration left out as unconfirmed", "settings": "exposed for 24 and 48 hours; cited from earlier work"}, "[4]": {"system": "human periodontal ligament cells (hPDLCs)", "design": "dose or concentration left out as unconfirmed", "settings": "exposed for 24 and 48 hours; cited from earlier work"}, "[5]": {"settings": "summary statement on FIG. 1, concentration not stated"}}}
{"smiles": "CC/C=C\\C/C=C\\C/C=C\\C/C=C\\C/C=C\\C/C=C\\CCC(=O)O", "note": "[DHA, docosahexaenoic acid]", "values": [{"measurement": "reduction of biofilm formation versus control", "setting": "[1]; DHA 6.25 μM", "value": "~20", "unit": "%"}, {"measurement": "reduction of biofilm formation versus control", "setting": "[1]; DHA 100 μM", "value": "~65", "unit": "%"}, {"measurement": "reducing biofilm formation", "setting": "[1]; [5]", "value": "approximately 60%"}, {"measurement": "reduction of biofilm formation versus control", "setting": "[2]; DHA 6.25 μM", "value": "~40", "unit": "%"}, {"measurement": "reduction of biofilm formation versus control", "setting": "[2]; DHA 100 μM", "value": "~65", "unit": "%"}, {"measurement": "reducing biofilm formation", "setting": "[2]; [5]", "value": "approximately 60%"}, {"measurement": "cytotoxic effects", "setting": "[3]", "value": "exhibited cytotoxic effects"}, {"measurement": "cytotoxic effects", "setting": "[4]", "value": "exhibited cytotoxic effects"}]}
